Consider eleven compounds from patent US20240124504A1, “AROMATIC HETEROCYCLIC COMPOUND, AND PHARMACEUTICAL COMPOSITION AND APPLICATION THEREOF” (GT APEIRON THERAPEUTICS LIMITED, priority 2020, published 2024).

Structures are written as SMILES. pIC50: −log10 of the molar value.

Assay [1] addresses CDK7/cyclinH/MAT1 complex (Homo sapiens, UniProt P50613). The experiment in a line: In-vitro enzymatic inhibitory activity testing, CDK7 inhibition assay (Caliper EZ Reader II). Format: biochemical. The settings on record: CDK7/cyclinH/MAT1 6 nM, 180 min at 27° C. On the procedure: (§1) CDK12/CyclinK was diluted in an assay buffer (80 mM MES PH 6.5, 0.01% Tween 20, 50 ug/mL BSA, 10 mM MgCl2) to afford a corresponding enzyme solution with the 2.4 concentration. A compound was dissolved in dimethyl sulfoxide (DMSO) at a concentration of 10 mM. […] 2 ul of a test compound solution was mixed with 5 ul of the enzyme solution; after incubation for 10 min, 5 ul of the polypeptide substrate and ATP mixed solution was added; incubation was carried out for 180 min at 27° C.; and then, the reaction was terminated by adding 4 uL of EDTA with a concentration of 120 mM to each sample. […] A CDK9/cyclinT1 complex (8 nM) and a “5-FAM-CDK9tide” peptide substrate (2 IM, synthetic fluorophore-labeled peptide with the following sequence: 5-FAM-GSRTPMY-NH2, wherein 5-FAM was as defined above and NH2 represented C-terminal amide) were used for a CDK9 inhibition assay. […] A CDK2/cyclinE1 complex (0.5 nM) and “5-FAM-CDK7tide” (2 μM) as defined above were used for CDK2 inhibition assay.
(§2) A reaction mixture was analyzed on Caliper EZ Reader II by electrophoretic separation of a fluorogenic substrate and a phosphorylated product. Data were calculated by using GraphPad Prism version 6.0, and IC50 values were adjusted and obtained by using a nonlinear regression model of a dose response curve.

For the next assay, the target named is CDK2/cyclinE1 complex (Homo sapiens, UniProt P24941). The experiment in a line: In-vitro enzymatic inhibitory activity testing, CDK2 inhibition assay (Caliper EZ Reader II). The note with it: CDK2/cyclinE1 0.5 nM, 180 min at 27° C. Type of assay: biochemical. On the procedure:
CDK12/CyclinK was diluted in an assay buffer (80 mM MES PH 6.5, 0.01% Tween 20, 50 ug/mL BSA, 10 mM MgCl2) to afford a corresponding enzyme solution with the 2.4 concentration. […] A CDK9/cyclinT1 complex (8 nM) and a “5-FAM-CDK9tide” peptide substrate (2 IM, synthetic fluorophore-labeled peptide with the following sequence: 5-FAM-GSRTPMY-NH2, wherein 5-FAM was as defined above and NH2 represented C-terminal amide) were used for a CDK9 inhibition assay. […] A CDK2/cyclinE1 complex (0.5 nM) and “5-FAM-CDK7tide” (2 μM) as defined above were used for CDK2 inhibition assay.
as §2

Another assay addresses CDK9/cyclinT1 complex (Homo sapiens, UniProt P50750). Nature of the assay: In-vitro enzymatic inhibitory activity testing, CDK9 inhibition assay (Caliper EZ Reader II). Type of assay: biochemical. The settings on record: CDK9/cyclinT1 8 nM, 180 min at 27° C. On the procedure: as §1, §2
Assay [2] has as its target T1, CDK12 (aa686-1082)/cyclinK complex (Homo sapiens, UniProt Q9NYV4).
T1 construct: A CDK12 (aa686-1082)/cyclinK complex (50 nM)
The experiment in a line: In-vitro enzymatic inhibitory activity testing, CDK12 inhibition assay (Caliper EZ Reader II). Type of assay: biochemical. The note with it: CDK12/cyclinK 50 nM, 180 min at 27° C.; read-out: CDK12 IC50. On the procedure:
An assay was carried out in a U-bottom 384-well plate (coming, 4512#), and the reaction temperature was 27° C. CDK7/CyclinH was diluted in an assay buffer (20 mM MES PH 6.75, 0.01% Tween 20, 50 ug/mL BSA, 6 mM MgCl2) to afford a corresponding enzyme solution with the 2.4× concentration. CDK2/CyclinE1 was diluted in an assay buffer (20 mM MES PH 6.75, 0.01% Tween 20, 50 ug/mL BSA, 6 mM MgCl2) to afford a corresponding enzyme solution with the 2.4× concentration. CDK9/CyclinT1 was diluted in an assay buffer (20 mM MES PH 6.75, 0.01% Tween 20, 50 ug/mL BSA, 10 mM MgCl2) to afford a corresponding enzyme solution with the 2.4× concentration. CDK12/CyclinK was diluted in an assay buffer (80 mM MES PH 6.5, 0.01% Tween 20, 50 ug/mL BSA, 10 mM MgCl2) to afford a corresponding enzyme solution with the 2.4 concentration. A compound was dissolved in dimethyl sulfoxide (DMSO) at a concentration of 10 mM. During use, the compound was diluted with DMSO into 10 concentration gradients from 25 nM to 500 uM, and respectively diluted by 8.3 folds in the assay buffer to afford a compound solution with a 6× concentration. A polypeptide substrate and ATP were diluted in the assay buffer to afford a polypeptide substrate and ATP mixed solution with a 2.4× concentration. 2 ul of a test compound solution was mixed with 5 ul of the enzyme solution; after incubation for 10 min, 5 ul of the polypeptide substrate and ATP mixed solution was added; incubation was carried out for 180 min at 27° C.; and then, the reaction was terminated by adding 4 uL of EDTA with a concentration of 120 mM to each sample. […]. Specifically, a CDK7/cyclinH/MAT1 complex (6 nM) and a “5-FAMCD K 7 tide” peptide substrate (2 μM, synthetic fluorophore-labeled peptide with the following sequence: 5-FAM-[…], wherein “5-FAM” refers to 5-carboxyfluorescein) were used for a CDK7 inhibition assay. A CDK9/cyclinT1 complex (8 nM) and a “5-FAM-CDK9tide” peptide substrate (2 IM, synthetic fluorophore-labeled peptide with the following sequence: 5-FAM-GSRTPMY-NH2, wherein 5-FAM was as defined above and NH2 represented C-terminal amide) were used for a CDK9 inhibition assay. A CDK12 (aa686-1082)/cyclinK complex (50 nM) and “5-FAM-CDK9tide” (2 μM) as defined above were used for a CDK12 inhibition assay. A CDK2/cyclinE1 complex (0.5 nM) and “5-FAM-CDK7tide” (2 μM) as defined above were used for CDK2 inhibition assay.
as §2

In the next assay the test system is ovarian cancer A2780. The experiment in a line: Cell biological activity detection (CyQuant, 72 hours), A2780. Format: cell-based, human. The note with it: A2780 cells, incubation for 72 hours. On the procedure:
(§3) A2780 and HCC70 cells were subjected to trypsin digestion treatment, and cell suspensions were respectively transferred to 15 mL centrifuge tubes and centrifuged for 5 min at […]) rpm; supernatant was discarded, and resuspension was carried out in a fresh medium (RPMI 1640+10% FBS), after counting, cells were seeded into a 384-well plate at 2000/well (50 μL of 1640+10% FBS medium was added to the 2nd column and the 23rd column of the 384-well plate, and 50 μL of DPBS was added to the surrounding wells). Incubation was carried out overnight in an incubator (37° C., 5% CO2).
(§4) The compound was added to the well plates the next day. The compound had the highest concentration of 10 μM and was diluted at 1:4, and there were a total of 9 concentrations; and a positive compound Paclitaxel had the highest concentration of 1 μM and was diluted at 1:3, and there were a total of 9 concentrations. The DMSO content in each well was unified to 0.2%. The cell plates were centrifuged for 30 seconds at 800 rpm and placed in an incubator (37° C., 5% CO2) for incubation for 72 hours. On the fourth day, a Cyquant reagent (3×) was formulated according to kit instructions, and formulation was carried out for each 384-well plate according to the following proportions: DPBS 11.568 mL, CyQuant®? Direct nucleic acid stain 72 μL, and CyQuant® Direct background suppressor 360 μL. After uniform mixing, the reagent was placed at room temperature for further use. The cell plates were taken out and equilibrated for 30 min at room temperature, and 25 μL of the Cyquant reagent (3×) per well was dispensed into the cells of the 384-well plates by Multi-drop, and incubation was carried out for more than 60 minutes at 37° C. Acumen plate reading (Acumen setting: an excitation wavelength of 488 nm). IC50 results were analyzed by XLFIT5 from IDBS Company.

Assay [3] deals with human breast cancer cells HCC70. Nature of the assay: Cell biological activity detection (CyQuant, 72 hours), HCC70. The settings on record: incubation for 72 hours. Type of assay: cell-based. On the procedure:
as §3, §4

CDK7/cyclinH/MAT1 complex, sequence (P50613 whole entry, species assumed): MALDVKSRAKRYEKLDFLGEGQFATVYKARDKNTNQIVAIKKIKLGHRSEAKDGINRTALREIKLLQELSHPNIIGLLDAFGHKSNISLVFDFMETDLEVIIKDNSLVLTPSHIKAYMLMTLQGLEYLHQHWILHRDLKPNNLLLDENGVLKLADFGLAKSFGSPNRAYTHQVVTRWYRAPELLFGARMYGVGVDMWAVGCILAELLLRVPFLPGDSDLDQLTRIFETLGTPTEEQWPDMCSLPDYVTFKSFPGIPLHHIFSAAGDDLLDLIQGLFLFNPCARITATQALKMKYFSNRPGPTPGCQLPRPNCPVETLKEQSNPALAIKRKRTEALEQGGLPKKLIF
CDK7/cyclinH/MAT1 complex, sequence (P51946 whole entry partner, species assumed): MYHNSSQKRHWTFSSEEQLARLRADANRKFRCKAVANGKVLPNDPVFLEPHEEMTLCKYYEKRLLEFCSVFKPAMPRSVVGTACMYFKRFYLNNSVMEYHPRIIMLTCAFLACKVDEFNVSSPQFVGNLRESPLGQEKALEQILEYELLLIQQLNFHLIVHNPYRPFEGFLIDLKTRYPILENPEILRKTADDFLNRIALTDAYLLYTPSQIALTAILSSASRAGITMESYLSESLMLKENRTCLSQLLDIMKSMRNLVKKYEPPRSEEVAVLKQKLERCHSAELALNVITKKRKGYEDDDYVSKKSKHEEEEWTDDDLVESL
CDK7/cyclinH/MAT1 complex, sequence (P51948 whole entry partner, species assumed): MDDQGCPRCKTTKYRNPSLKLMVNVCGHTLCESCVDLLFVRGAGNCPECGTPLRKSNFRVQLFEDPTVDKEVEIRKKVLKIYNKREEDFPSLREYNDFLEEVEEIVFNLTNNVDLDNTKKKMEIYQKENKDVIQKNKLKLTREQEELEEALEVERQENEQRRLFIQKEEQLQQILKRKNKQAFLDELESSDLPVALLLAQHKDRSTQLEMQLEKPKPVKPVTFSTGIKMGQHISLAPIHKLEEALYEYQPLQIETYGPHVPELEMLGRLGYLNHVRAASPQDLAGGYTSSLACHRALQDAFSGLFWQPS
CDK9/cyclinT1 complex, sequence (P50750 whole entry, species assumed, the tested form may be a part): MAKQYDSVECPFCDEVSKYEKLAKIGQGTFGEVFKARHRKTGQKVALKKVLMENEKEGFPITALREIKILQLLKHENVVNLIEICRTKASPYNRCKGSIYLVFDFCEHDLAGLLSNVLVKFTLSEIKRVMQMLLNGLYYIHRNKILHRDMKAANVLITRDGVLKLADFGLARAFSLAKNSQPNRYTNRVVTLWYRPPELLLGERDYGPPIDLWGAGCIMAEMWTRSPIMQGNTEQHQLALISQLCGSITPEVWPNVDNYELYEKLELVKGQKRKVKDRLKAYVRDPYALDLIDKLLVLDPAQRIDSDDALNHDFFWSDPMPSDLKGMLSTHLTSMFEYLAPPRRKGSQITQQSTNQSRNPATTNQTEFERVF
CDK9/cyclinT1 complex, sequence (O60563 whole entry partner, species assumed, the tested form may be a part): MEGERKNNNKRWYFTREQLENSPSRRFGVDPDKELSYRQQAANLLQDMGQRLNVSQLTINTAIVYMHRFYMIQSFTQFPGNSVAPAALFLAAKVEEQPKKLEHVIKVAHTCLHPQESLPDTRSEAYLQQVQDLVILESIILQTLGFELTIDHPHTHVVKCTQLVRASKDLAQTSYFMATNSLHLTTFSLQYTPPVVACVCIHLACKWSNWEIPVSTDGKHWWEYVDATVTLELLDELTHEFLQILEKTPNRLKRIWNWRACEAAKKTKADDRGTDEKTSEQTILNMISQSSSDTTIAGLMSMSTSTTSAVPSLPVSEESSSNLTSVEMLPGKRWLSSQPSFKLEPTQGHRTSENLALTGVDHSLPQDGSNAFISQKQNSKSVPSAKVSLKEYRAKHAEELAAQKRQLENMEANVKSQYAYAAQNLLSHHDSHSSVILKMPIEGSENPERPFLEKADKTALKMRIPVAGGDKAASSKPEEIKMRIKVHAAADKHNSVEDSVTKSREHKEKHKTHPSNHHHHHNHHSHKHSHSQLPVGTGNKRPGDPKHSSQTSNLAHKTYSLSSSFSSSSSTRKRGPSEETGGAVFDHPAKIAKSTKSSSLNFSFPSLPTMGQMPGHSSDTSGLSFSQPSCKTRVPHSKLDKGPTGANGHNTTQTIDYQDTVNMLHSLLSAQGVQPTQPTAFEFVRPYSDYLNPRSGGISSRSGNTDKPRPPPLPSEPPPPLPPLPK
T1 sequence (Q9NYV4 686-1082, species assumed): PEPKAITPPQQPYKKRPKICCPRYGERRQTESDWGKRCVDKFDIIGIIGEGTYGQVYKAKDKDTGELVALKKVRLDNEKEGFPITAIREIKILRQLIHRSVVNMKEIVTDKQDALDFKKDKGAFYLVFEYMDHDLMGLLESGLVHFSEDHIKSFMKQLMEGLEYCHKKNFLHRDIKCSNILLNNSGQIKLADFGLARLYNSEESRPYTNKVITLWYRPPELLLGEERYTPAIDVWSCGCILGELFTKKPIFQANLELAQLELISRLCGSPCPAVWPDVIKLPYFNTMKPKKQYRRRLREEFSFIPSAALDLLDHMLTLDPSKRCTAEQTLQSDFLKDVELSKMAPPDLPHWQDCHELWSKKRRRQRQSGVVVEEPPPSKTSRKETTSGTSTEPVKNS
T1 sequence (O75909 whole entry partner, species assumed, the tested form may be a part): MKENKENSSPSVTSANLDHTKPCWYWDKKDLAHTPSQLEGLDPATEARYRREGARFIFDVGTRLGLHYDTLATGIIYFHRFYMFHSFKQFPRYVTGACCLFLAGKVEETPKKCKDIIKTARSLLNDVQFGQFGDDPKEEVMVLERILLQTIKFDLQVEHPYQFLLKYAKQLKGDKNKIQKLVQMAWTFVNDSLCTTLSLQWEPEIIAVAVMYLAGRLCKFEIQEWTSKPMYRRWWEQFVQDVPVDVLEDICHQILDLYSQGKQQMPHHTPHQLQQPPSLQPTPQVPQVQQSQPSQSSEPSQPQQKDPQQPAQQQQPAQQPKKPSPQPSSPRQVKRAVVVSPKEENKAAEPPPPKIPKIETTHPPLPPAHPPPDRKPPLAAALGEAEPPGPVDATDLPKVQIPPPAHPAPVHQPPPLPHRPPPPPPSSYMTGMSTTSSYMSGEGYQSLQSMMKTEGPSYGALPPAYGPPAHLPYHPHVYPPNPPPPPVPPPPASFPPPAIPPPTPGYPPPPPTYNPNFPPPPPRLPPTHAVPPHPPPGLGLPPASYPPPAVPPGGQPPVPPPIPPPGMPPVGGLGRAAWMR

Usually pIC50 stands for the negative decadic logarithm of the IC50, by convention in mol/L. With `N#Cc1ccc2c(-c3nc(N[C@@H]4CCC45CNC5)ncc3C(F)(F)F)c[nH]c2n1` [Compound 61, (R)-3-(2-((2-azaspiro[3.3]heptan-5-yl)amino)-5-(trifluoromethyl)pyrimidin-4-yl)-1H-pyrrolo[2,3-b]pyridine-6-carbonitrile], the negative logarithm of the IC50 (pIC50) is over 7.70 in assay [1]; 4.30 to 5.30 against CDK2/cyclinE1 complex; 4.30 to 5.30 against CDK9/cyclinT1 complex; 4.30 to 5.30 in assay [2]; 5.30 to 6.70 in the assay on ovarian cancer A2780 (Homo sapiens, A2780, 72 h).

For the compound `FC(F)(F)c1cnc(NC2CCCNCC2)nc1-c1c[nH]c2nc(N3CCOCC3)ccc12` (single isomer, unassigned) [Compound 48], the pIC50 in assay [1] was 6.70 to 7.70; against CDK2/cyclinE1 complex, 5.30 to 6.70; at CDK9/cyclinT1 complex it was 4.30 to 5.30; in assay [2], 5.30 to 6.70; in assay [3] (Homo sapiens, HCC70, 72 h), 5.30 to 6.70; with ovarian cancer A2780 (Homo sapiens, A2780, 72 h), 5.30 to 6.70.

As for `CC(C)(C)[C@H](CO)Nc1ncc(C(F)(F)F)c(-c2c[nH]c3c(P(C)(C)=O)cccc23)n1` [Compound 176], the pIC50 in assay [3] (Homo sapiens, HCC70, 72 h) is over 7.70.

Regarding `CC(C)[C@@H](CO)Nc1ncc(C(F)(F)F)c(-c2c[nH]c3c(P(C)(C)=O)cccc23)n1` [Compound 115, (S)-(3-(2-((1-hydroxy-3-methylbutan-2-yl)amino)-5-(trifluoromethyl)pyrimidin-4-yl)-1H-indole-7-yl)dimethylphosphine oxide], the pIC50 was 6.70 to 7.70 in assay [1]; 4.30 to 5.30 against CDK2/cyclinE1 complex; under 4.30 against CDK9/cyclinT1 complex; under 4.30 in assay [2]; 6.70 to 7.70 in assay [3] (Homo sapiens, HCC70, 72 h); 6.70 to 7.70 with ovarian cancer A2780 (Homo sapiens, A2780, 72 h).

Consider `C[C@H]1COCCN1c1ccc2c(-c3nc(N[C@H]4CC[C@@H](N)C4)ncc3C(F)(F)F)c[nH]c2n1` [Compound 68, (1S,3R)—N1-(4-(6-((S)-3-methylmorpholinyl)-1H-pyrrolo[2,3-b]pyridin-3-yl)-5-(trifluoromethyl)pyrimidin-2-yl)cyclopentan-1,3-diamine], for which the pIC50 in assay [1] was 6.70 to 7.70; at CDK2/cyclinE1 complex, 4.30 to 5.30; on CDK9/cyclinT1 complex it was 4.30 to 5.30; in assay [2], 4.30 to 5.30; in assay [3] (Homo sapiens, HCC70, 72 h), 5.30 to 6.70; in the assay with ovarian cancer A2780 (Homo sapiens, A2780, 72 h), 5.30 to 6.70.

Turning to `CP(C)(=O)c1cccc2c(-c3nc(NCC4(O)CCC4)ncc3C(F)(F)F)c[nH]c12` [Compound 90], the pIC50 was 6.70 to 7.70 in assay [1]; 4.30 to 5.30 on CDK2/cyclinE1 complex; 4.30 to 5.30 at CDK9/cyclinT1 complex; under 4.30 in assay [2]; 6.70 to 7.70 in assay [3] (Homo sapiens, HCC70, 72 h); 6.70 to 7.70 with ovarian cancer A2780 (Homo sapiens, A2780, 72 h).

`CC1(C)COCC(Nc2ncc(C(F)(F)F)c(-c3c[nH]c4c(P(C)(C)=O)cccc34)n2)CN1` (single isomer, unassigned) [Compound 92, (3-(2-((3,3-dimethyl-1,4-oxazepan-6-yl)amino)-5-(trifluoromethyl)pyrimidin-4-yl)-1H-indole-7-yl)dimethylphosphine oxide]: the pIC50 in assay [1] was over 7.70; at CDK2/cyclinE1 complex, 4.30 to 5.30; at CDK9/cyclinT1 complex it was 4.30 to 5.30; in assay [2] it was 4.30 to 5.30; in assay [3], 6.70 to 7.70; in the assay with ovarian cancer A2780, over 7.70.

Take `CP(C)(=O)c1cccc2c(-c3nc(NC4CC(F)(F)CC4O)ncc3C(F)(F)F)c[nH]c12` (single isomer, unassigned) [Compound 191]: the pIC50 is over 7.70 in assay [1]; 5.30 to 6.70 against CDK2/cyclinE1 complex; 6.70 to 7.70 in assay [3] (Homo sapiens, HCC70, 72 h); over 7.70 in the assay on ovarian cancer A2780 (Homo sapiens, A2780, 72 h).

With `Cc1noc(C)c1-c1ccc2c(-c3nc(N[C@@H]4CCC45CNC5)ncc3C(F)(F)F)c[nH]c2n1` [Compound 36, (R)—N-(4-(6-(3,5-dimethylisoxazol-4-yl)-1H-pyrrolo[2,3-b]pyridin-3-yl)-5-(trifluoromethyl)pyrimidin-2-yl)-2-azaspiro[3.3]heptan-5-amine], the pIC50 in assay [1] is over 7.70; on CDK2/cyclinE1 complex it was 4.30 to 5.30; against CDK9/cyclinT1 complex, 4.30 to 5.30; in assay [2], 5.30 to 6.70; in the assay on ovarian cancer A2780 (Homo sapiens, A2780, 72 h) it was over 7.70.

With `FC(F)(F)c1cnc(NC2CCC3CNCC32)nc1-c1c[nH]c2nc(N3CCOCC3)ccc12` (single isomer, unassigned) [Compound 56], the pIC50 in assay [1] is 5.30 to 6.70; at CDK2/cyclinE1 complex it was under 4.30; against CDK9/cyclinT1 complex, under 4.30; in assay [2], under 4.30; with ovarian cancer A2780, 4.30 to 5.30.

For `C[C@H]1C[C@H](Nc2ncc(C(F)(F)F)c(-c3c[nH]c4nc(N5CCOCC5)ccc34)n2)CCN1` [Compound 53, N-((2S,4R)-2-methylpiperidin-4-yl)-4-(6-morpholinyl-1H-pyrrolo[2,3-b]pyridin-3-yl)-5-(trifluoromethyl)pyrimidin-2-amine], the negative logarithm of the IC50 (pIC50) in assay [3] (Homo sapiens, HCC70, 72 h) is 5.30 to 6.70; in the assay with ovarian cancer A2780 (Homo sapiens, A2780, 72 h) it was 5.30 to 6.70.
